In article PMC4159282, “Gi Proteins Regulate Adenylyl Cyclase Activity Independent of Receptor Activation” (PLoS ONE, 2014) one finds EC50 data, which are given here for two compounds.

The test concerns the target T1, β2-adrenoceptor (β2AR) (Rattus norvegicus, UniProt P10608).
T1 construct: gene Adrb2

T1 sequence (P10608 whole entry): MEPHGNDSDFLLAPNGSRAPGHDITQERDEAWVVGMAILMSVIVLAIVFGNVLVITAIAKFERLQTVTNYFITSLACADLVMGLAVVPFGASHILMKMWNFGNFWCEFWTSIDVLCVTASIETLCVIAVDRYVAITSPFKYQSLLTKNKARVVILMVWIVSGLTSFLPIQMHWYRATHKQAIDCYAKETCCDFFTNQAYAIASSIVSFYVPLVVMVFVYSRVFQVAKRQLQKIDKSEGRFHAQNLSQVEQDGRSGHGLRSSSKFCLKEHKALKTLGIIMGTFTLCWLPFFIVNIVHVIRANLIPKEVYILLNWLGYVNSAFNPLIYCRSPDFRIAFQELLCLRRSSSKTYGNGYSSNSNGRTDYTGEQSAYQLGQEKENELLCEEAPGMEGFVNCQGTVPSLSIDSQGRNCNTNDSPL

For `C[C@@H](Cc1ccc(O)cc1)NC[C@H](O)c1cc(O)cc(O)c1` (racemic) [RS, (R,S)-fenoterol], the EC50 came to 3500 ± 500 nM.

`C[C@H](Cc1ccc(O)cc1)NC[C@H](O)c1cc(O)cc(O)c1` [RR, (R,R)-fenoterol] registered a concentration for a half-maximal effect (EC50) of 140 ± 48 nM.

One may read the EC50 as the midpoint of the concentration-response curve. High values mean lower potency in that assay, low ones higher potency in that assay.
